Read-outs that look alike come from different tables or passages of the source.
How the values were obtained:
[1] = test system: HIV-IIIB (HIV-1) replication in H9 cells; assay: HIV replication in cocultivation of H9/HIV-IIIB chronically infected cells with H9 cells; type: cell-based
Description: 10 H9/HIV-IIIB (A,D), 100 H9/HIV-IIIB (B,E) or 1000 H9/HIV-IIIB cells (C,F) were cocultivated with 10^5 H9 cells in the presence or absence of 0.01 μM (A,B), 0.2 μM (C) , 0.005 μM (D,E), or 0,005-0.01 μM (F) of CPT for 1 h (A,B,C) or 18h (D,E,F). RT activity was measured in the culture media 7,8, and 9 days post-infection and treatment.
Cocultivation of H9/HIV-IIIB Cells with Uninfected H9 Cells and CPT Treatment: Ten, 100 or 1,000 H9/HIV-IIIB cells were cocultivated with 10^5 H9 cells in the presence or absence of different CPT doses. Cells were incubated for 1 h at 37° C., pelleted, washed and resuspended in fresh media. RT activity in the culture media was measured seven, eight, and nine days after infections, as described above.
For a longer treatment period, H9/HIV-IIIB cells were cocultivated with H9 cells in the presence or absence of 0.005-0.01 μM CPT for 18 h at 37° C.
CPT Inhibition of HIV Replication in Cocultivation of H9/HIV-IIIB Chronically Infected Cells with H9 Uninfected Cells. Since it is likely that HIV infection in vivo involves cell to cell contact and virus production by previously infected cells, the ability of CPT to block the spread of HIV in uninfected H9 cells cocultivated with cells chronically infected with HIV was examined. The results shown in FIG. 2A indicate that 100% inhibition of HIV replication was observed when 10 infected cells were mixed with uninfected cells in the presence of 0.01 μM CPT for 1 h. […] However, increasing the CPT dose to 0.2 μM reduced HIV replication to 15% of control values when 1000 infected cells were mixed with 10^5 uninfected H9 cells (FIG. 2C).

[2] = test system: HIV-IIIB (HIV-1) replication in H9 cells; assay: HIV replication (RT activity) in acute infection of H9 cells; type: cell-based; details: for RT activity: 7 days postinfection; for RT/Cell: 1 h treatment
Description: HIV-Acute Infection of H9 Cells by HIV and Drug Treatment: One ml of culture supernatant of H9/HIV-IIIB cells (10^6 /ml) was used after centrifugation (200xg, 20 min) and filtration (0.45 μm) for infecting 10^5 H9 cells in the presence or absence of different levels of CPT, m-AMSA or VP-16. Control cells received equivalent volumes of DMSO. The cells were incubated for 1 h at 37° C., pelleted, washed and resuspended in fresh media. […] (1981) J. Virol. 38: 239-48.
CPT Inhibition of HIV Replication Following Acute Infection of H9 Cells with HIV-IIIB. In order to determine appropriate concentrations of CPT which would permit cell viability and growth while inhibiting viral infection or replication, H9 cells were infected with HIV-IIIB as described above in the absence or presence of different CPT doses. The cells were incubated for 1 h at 37° C., pelleted, washed and resuspended in fresh media. Reverse transcriptase (RT) activity in the culture media was measured seven days after infection.
Since CPT is an anticancer drug and a known topo I inhibitor, its effects on HIV replication were compared to those of other anticancer drugs which are known to inhibit the related topoisomerase II enzyme.

[3] = test system: Spleen Focus Forming Virus (SFFV); assay: Inhibition of disease induction in vivo by SFFV, IV or IP; set-up: species or system NFS mice; details: CPT 20 mg/kg; for # diseased mice (diseased/injected) / AVG. spleen WT.: 4 weeks
Description: Inhibition of Disease Induction In Vivo by Spleen Focus Forming Virus (SFFV) by Intravenous or Intraperitoneal Infection of CPT. In a repeat and extension of the previous experiment, NFS mice were injected either intraperitoneally or intravenously with dilutions of infectious virus stock in the presence or absence of CPT. Virus was mixed with stocks of CPT dissolved in DMSO at 10 mg/ml and adjusted so that mice were treated at 20 mg/kg. In samples without CPT, DMSO was added to an equivalent concentration (9.6%). In both IP and IV injections, 0.5ml was injected per mouse. Animals were monitored and sacrificed 4 weeks after injection. Spleens were weighed, and a spleen weight in excess of 0.2 gm was judged positive for SFFV disease.

CC[C@@]1(O)C(=O)OCc2c1cc1n(c2=O)Cc2cc3ccccc3nc2-1 [CPT, Camptothecin]
activity at 0.2 µM ([1]; Human immunodeficiency virus 1, IIIB, H9, 1 h, read-out: HIV replication reduced to % of control values): 15% | inhibition at 0.01 µM ([1]; Human immunodeficiency virus 1, IIIB, H9, 1 h, read-out: inhibition of HIV replication, 10 infected cells, 0.01 μM CPT, 1 h): 100% | inhibition at 0.01 µM ([1]; Human immunodeficiency virus 1, IIIB, H9, 1 h, read-out: inhibition of HIV replication, 100 infected cells, 0.01 μM CPT, 1 h): 50% | inhibition at 0.01 µM ([1]; Human immunodeficiency virus 1, IIIB, H9, 1 h, read-out: inhibition of HIV replication, 1000 infected cells, 0.01 μM CPT, 1 h (data not shown)): 13% | inhibition at 0.005 µM ([1]; Human immunodeficiency virus 1, IIIB, H9, 18 h, read-out: inhibition of HIV replication (RT activity), 10 or 100 infected cells, 0.005 μM CPT, 18 h, days 7, 8 and 9): 98 to 100% | inhibitory effect on HIV replication ([1]; larger numbers of infected cells, 0.2 μM CPT, or 0.005 μM for 18h): strong inhibitory effect on HIV replication | RT activity ([2]; 0.005 μM CPT, 1 h): 429 ± 116 cpm/cell 10^5 | RT/Cell ([2]; 0.005 μM CPT, day 7 after infection): 5400 cpm/10^5 Cell | RT/Cell ([2]; 0.005 μM CPT, day 8 after infection): 34268 cpm/10^5 Cell | RT/Cell ([2]; 0.005 μM CPT, day 9 after infection): 102450 cpm/10^5 Cell | RT activity ([2]; 0.01 μM CPT, 1 h): 528 ± 40 cpm/cell 10^5 | RT/Cell ([2]; 0.01 μM CPT, day 7 after infection): 5085 cpm/10^5 Cell | RT/Cell ([2]; 0.01 μM CPT, day 8 after infection): 33968 cpm/10^5 Cell | RT/Cell ([2]; 0.01 μM CPT, day 9 after infection): 112870 cpm/10^5 Cell | RT activity ([2]; 0.02 μM CPT, 1 h): 400 ± 103 cpm/cell 10^5 | RT/Cell ([2]; 0.02 μM CPT, day 7 after infection): 29.7 cpm/10^5 Cell | RT/Cell ([2]; 0.02 μM CPT, day 8 after infection): 325 cpm/10^5 Cell | RT/Cell ([2]; 0.02 μM CPT, day 9 after infection): 65761 cpm/10^5 Cell | inhibition of HIV production ([2]; 0.05 μM CPT, 8 and 9 days after infection): essentially complete inhibition of HIV production | RT activity ([2]; 0.05 μM CPT, 1 h): 235 ± 62 cpm/cell 10^5 | RT/Cell ([2]; 0.05 μM CPT, day 7 after infection): 0.03 cpm/10^5 Cell | RT/Cell ([2]; 0.05 μM CPT, day 8 after infection): 1.5 cpm/10^5 Cell | RT/Cell ([2]; 0.05 μM CPT, day 9 after infection): 9.4 cpm/10^5 Cell | RT activity ([2]; 0.1 μM CPT, 1 h): 106 ± 30 cpm/cell 10^5 | RT activity ([2]; 0.2 μM CPT, 1 h): 139 ± 96 cpm/cell 10^5 | inhibitory effect on HIV replication ([2]; 0.005-0.02 μM CPT, 1 h, 7 days after infection): 89-93% | effect of 1 hour exposure during viral infection on HIV replication ([2]; 1 hour exposure): sufficient to prevent HIV replication | inhibition at 0.005 µM ([2]; Human immunodeficiency virus 1, IIIB, H9, read-out: RT % Inhibition, 0.005 μM CPT, 1 h treatment, day 7 after infection): 84% | inhibition at 0.005 µM ([2]; Human immunodeficiency virus 1, IIIB, H9, read-out: RT % Inhibition, 0.005 μM CPT, 1 h treatment, day 8 after infection): 74% | inhibition at 0.005 µM ([2]; Human immunodeficiency virus 1, IIIB, H9, read-out: RT % Inhibition, 0.005 μM CPT, 1 h treatment, day 9 after infection): 24% | inhibition at 0.01 µM ([2]; Human immunodeficiency virus 1, IIIB, H9, read-out: RT % Inhibition, 0.01 μM CPT, 1 h treatment, day 7 after infection): 85% | inhibition at 0.01 µM ([2]; Human immunodeficiency virus 1, IIIB, H9, read-out: RT % Inhibition, 0.01 μM CPT, 1 h treatment, day 8 after infection): 75% | inhibition at 0.01 µM ([2]; Human immunodeficiency virus 1, IIIB, H9, read-out: RT % Inhibition, 0.01 μM CPT, 1 h treatment, day 9 after infection): 17% | inhibition at 0.02 µM ([2]; Human immunodeficiency virus 1, IIIB, H9, read-out: RT % Inhibition, 0.02 μM CPT, 1 h treatment, day 7 after infection): 100% | inhibition at 0.02 µM ([2]; Human immunodeficiency virus 1, IIIB, H9, read-out: RT % Inhibition, 0.02 μM CPT, 1 h treatment, day 8 after infection): 98.8% | inhibition at 0.02 µM ([2]; Human immunodeficiency virus 1, IIIB, H9, read-out: RT % Inhibition, 0.02 μM CPT, 1 h treatment, day 9 after infection): 52% | inhibition at 0.05 µM ([2]; Human immunodeficiency virus 1, IIIB, H9, read-out: RT % Inhibition, 0.05 μM CPT, 1 h treatment, day 7 after infection): 100% | inhibition at 0.05 µM ([2]; Human immunodeficiency virus 1, IIIB, H9, read-out: RT % Inhibition, 0.05 μM CPT, 1 h treatment, day 8 after infection): 100% | inhibition at 0.05 µM ([2]; Human immunodeficiency virus 1, IIIB, H9, read-out: RT % Inhibition, 0.05 μM CPT, 1 h treatment, day 9 after infection): 100% | inhibition at 0.005 µM ([2]; Human immunodeficiency virus 1, IIIB, H9, read-out: RT activity % Inhibition, 0.005 μM CPT, 1 h, 7 days postinfection): 89 ± 4% | inhibition at 0.01 µM ([2]; Human immunodeficiency virus 1, IIIB, H9, read-out: RT activity % Inhibition, 0.01 μM CPT, 1 h, 7 days postinfection): 89 ± 4% | inhibition at 0.02 µM ([2]; Human immunodeficiency virus 1, IIIB, H9, read-out: RT activity % Inhibition, 0.02 μM CPT, 1 h, 7 days postinfection): 93 ± 2% | inhibition at 0.05 µM ([2]; Human immunodeficiency virus 1, IIIB, H9, read-out: RT activity % Inhibition, 0.05 μM CPT, 1 h, 7 days postinfection): 96 ± 1.5% | inhibition at 0.1 µM ([2]; Human immunodeficiency virus 1, IIIB, H9, read-out: RT activity % Inhibition, 0.1 μM CPT, 1 h, 7 days postinfection): 98 ± 0.2% | inhibition at 0.2 µM ([2]; Human immunodeficiency virus 1, IIIB, H9, read-out: RT activity % Inhibition, 0.2 μM CPT, 1 h, 7 days postinfection): 98 ± 0.8% | inhibiting the initiation of infection by HIV ([2]; cell culture): has been demonstrated | prevention of HIV replication (RT activity) ([2]; one-hour treatment, 7 days after infection): 94-100% | # diseased mice (diseased/injected) ([3]; no virus, IP): 0/5 | AVG. spleen WT. ([3]; no virus, IP): 0.10 g | # diseased mice (diseased/injected) ([3]; no virus, IV): 0/5 | AVG. spleen WT. ([3]; no virus, IV): 0.10 g | injected mice died within 24 hours of causes unrelated to viral disease ([3]; virus 1/500, IP): 4/5 | # diseased mice (diseased/injected) ([3]; virus 1/500, IP): 0/1 | AVG. spleen WT. ([3]; virus 1/500, IP): 0.20 g | # diseased mice (diseased/injected) ([3]; virus 1/500, IV): 0/5 | AVG. spleen WT. ([3]; virus 1/500, IV): 0.10 g | injected mice died within 24 hours of causes unrelated to viral disease ([3]; virus 1/1000, IP): 3/5 | # diseased mice (diseased/injected) ([3]; virus 1/1000, IP): 0/2 | AVG. spleen WT. ([3]; virus 1/1000, IP): 0.15 g | # diseased mice (diseased/injected) ([3]; virus 1/1000, IV): 0/5 | AVG. spleen WT. ([3]; virus 1/1000, IV): 0.12 g

Source: US5422344A, “Method of treating retroviral infections in mammals” (The United States of America as represented by the …, priority 1990, dated 1995)
